The source of these data is paper PMC10655391, “Inhibition of Hsp110-STAT3 interaction in endothelial cells alleviates vascular remodeling in hypoxic pulmonary arterial Hypertension model” (Respiratory Research, 2023).

SMILES strings stand for the structures. Where only a bound is given, the exact number is not on record here.

The assay has as its target T1, Hsp110 (Homo sapiens, UniProt Q92598).
T1 construct: gene HSPH1; purified recombinant human Hsp110 (His6-SUMO tag cleaved)
In words: luciferase anti-aggregation assay with purified Hsp110 at […] (single concentration). Format: biochemical. Conditions: read-out: % reduction of anti-aggregating activity at 100 μM.

T1 sequence (Q92598 whole entry): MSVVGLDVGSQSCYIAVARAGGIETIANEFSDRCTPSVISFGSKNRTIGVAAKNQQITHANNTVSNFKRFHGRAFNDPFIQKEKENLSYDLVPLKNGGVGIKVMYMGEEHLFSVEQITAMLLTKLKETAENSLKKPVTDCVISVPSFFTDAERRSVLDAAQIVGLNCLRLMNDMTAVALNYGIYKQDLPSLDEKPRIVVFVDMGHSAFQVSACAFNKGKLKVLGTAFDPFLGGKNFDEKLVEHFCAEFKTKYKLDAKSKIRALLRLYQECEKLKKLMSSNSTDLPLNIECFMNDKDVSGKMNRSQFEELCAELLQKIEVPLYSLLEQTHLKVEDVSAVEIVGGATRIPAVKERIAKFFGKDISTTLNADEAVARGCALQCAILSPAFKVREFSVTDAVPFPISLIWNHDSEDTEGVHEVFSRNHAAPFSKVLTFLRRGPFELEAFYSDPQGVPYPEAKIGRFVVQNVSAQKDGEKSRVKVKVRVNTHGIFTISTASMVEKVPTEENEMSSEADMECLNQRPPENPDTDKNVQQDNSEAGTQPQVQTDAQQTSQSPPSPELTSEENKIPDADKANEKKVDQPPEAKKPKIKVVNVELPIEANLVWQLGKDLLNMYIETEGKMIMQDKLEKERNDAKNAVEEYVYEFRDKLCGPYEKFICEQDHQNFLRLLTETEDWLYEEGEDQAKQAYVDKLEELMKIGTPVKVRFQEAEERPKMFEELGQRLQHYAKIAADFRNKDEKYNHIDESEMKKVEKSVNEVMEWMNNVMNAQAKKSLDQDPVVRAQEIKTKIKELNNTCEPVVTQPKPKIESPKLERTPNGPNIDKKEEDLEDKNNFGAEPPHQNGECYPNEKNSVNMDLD

Take `Cc1ccccc1COc1nc2c(cc1-c1nc(N)cc(N)n1)c(C)nn2-c1ccccc1` [compound 5]: the inhibition at 100 µM was above 50%.

On to `Cc1nn(-c2ccccc2)c2nc(OCc3cnc(Cl)s3)c(-c3nc(N)cc(N)n3)cc12` [compound 8], for which the inhibition at 100 µM was above 50%.
